Measured values published in patent US20260198493A1, “HYDRAZIDE COMPOUND AND AGRICULTURAL/HORTICULTURAL FUNGICIDE” (Nippon Soda Co., Ltd., priority 2022, published 2026).

Legend:
Colletotrichum acutatum = assay: Fungicidal effect test against fungi causing apple anthracnose; settings: 96 h, read-out: growth inhibition ratio
Botrytis cinerea [1] = assay: Control test of cucumber gray mold (sprayed young cucumber seedlings); assay type: in vivo; settings: 96 h, four days after inoculation; for pest or weed control at 25 ppm: 25 ppm by mass spray; for pest or weed control at 125 ppm: 125 ppm by mass spray
Experimental: Then, the drug liquid was sprayed onto young cucumber seedlings cultivated in a nursery pot (variety “Jihai”-based, cotyledon stage), and then air-dried. […] They were left still in a moist room at 20° C. Four days after inoculation, leaves of the young cucumber seedlings were visually observed, and the control value was calculated from the lesion area ratio in accordance with the following equation. [formula]

Botrytis cinerea [2] = assay type: cell-based; settings: 120 h, 25 ppm by volume, Vogel medium, 20° C., five days, dark, read-out: growth inhibition ratio
Venturia inaequalis = assay: Control test of apple scab disease (sprayed young apple seedlings); assay type: in vivo; settings: 125 ppm by mass spray, 12 to 14 days after inoculation
Glomerella cingulata = assay: Fungicidal effect test against fungi causing grape ripe rot disease; settings: Colletotrichum gloeosporioides, 72 h, read-out: growth inhibition ratio
Fusarium graminearum = assay: microbe, parasite or virus in culture; assay type: cell-based; settings: 96 h, read-out: growth inhibition ratio
[3] = tested on: Erysiphe graminis f.sp.tritici; assay: Control test of wheat powdery mildew disease (sprayed young wheat seedlings); assay type: in vivo; settings: Blumeria graminis, 144 h, 125 ppm by mass spray, six days after inoculation

Cc1cccc(Oc2nnc(C)cc2C(=O)NN(Cc2ccc(C)cc2C)C(=O)O)c1 [b-117]
≥ 75%: inhibition of growth at 25 ppm (Colletotrichum acutatum) | pest or weed control at 25 ppm (Botrytis cinerea [1]) | pest or weed control at 125 ppm (Botrytis cinerea [1]) | inhibition of growth at 25 ppm (Botrytis cinerea [2]) | pest or weed control at 125 ppm (Venturia inaequalis) | inhibition of growth at 25 ppm (Glomerella cingulata) | inhibition of growth at 25 ppm (Fusarium graminearum) | pest or weed control at 125 ppm [3]

COC(=O)N(Cc1ccc(C)cc1C)NC(=O)c1c(Br)cncc1Oc1cccc(C2CC2)c1 [b-118]
≥ 75%: inhibition of growth at 25 ppm (Colletotrichum acutatum) | pest or weed control at 25 ppm (Botrytis cinerea [1]) | pest or weed control at 125 ppm (Botrytis cinerea [1]) | inhibition of growth at 25 ppm (Botrytis cinerea [2]) | pest or weed control at 125 ppm (Venturia inaequalis) | inhibition of growth at 25 ppm (Glomerella cingulata) | inhibition of growth at 25 ppm (Fusarium graminearum) | pest or weed control at 125 ppm [3]

COC(=O)N(Cc1ccc(C)cc1C)NC(=O)c1cc(C)nnc1Oc1csc(C(F)(F)F)c1 [b-124, Methyl 1-(2,4-dimethylbenzyl)-2-(6-methyl-3-((5-(trifluoromethyl)thiophen-3-yl)oxy)pyridazine-4-carbonyl)hydrazine-1-carboxylate]
≥ 75%: inhibition of growth at 25 ppm (Colletotrichum acutatum) | pest or weed control at 125 ppm (Botrytis cinerea [1]) | inhibition of growth at 25 ppm (Botrytis cinerea [2]) | pest or weed control at 125 ppm (Venturia inaequalis) | inhibition of growth at 25 ppm (Glomerella cingulata) | inhibition of growth at 25 ppm (Fusarium graminearum) | pest or weed control at 125 ppm [3]

COC(=O)N(Cc1ccc2c(c1)CCC2)NC(=O)c1cc(C)ncc1Oc1cccc(C2CC2)c1F [b-127]
≥ 75%: inhibition of growth at 25 ppm (Colletotrichum acutatum) | pest or weed control at 25 ppm (Botrytis cinerea [1]) | pest or weed control at 125 ppm (Botrytis cinerea [1]) | inhibition of growth at 25 ppm (Botrytis cinerea [2]) | pest or weed control at 125 ppm (Venturia inaequalis) | inhibition of growth at 25 ppm (Glomerella cingulata) | inhibition of growth at 25 ppm (Fusarium graminearum) | pest or weed control at 125 ppm [3]

COC(=O)N(Cc1ccc(C)cc1C)NC(=O)c1ccncc1Oc1cccc(Br)c1 [b-145]
≥ 75%: inhibition of growth at 25 ppm (Colletotrichum acutatum) | pest or weed control at 25 ppm (Botrytis cinerea [1]) | pest or weed control at 125 ppm (Botrytis cinerea [1]) | inhibition of growth at 25 ppm (Botrytis cinerea [2]) | pest or weed control at 125 ppm (Venturia inaequalis) | inhibition of growth at 25 ppm (Glomerella cingulata) | inhibition of growth at 25 ppm (Fusarium graminearum) | pest or weed control at 125 ppm [3]

COC(=O)N(Cc1ccc(OC)cc1C)NC(=O)c1ccncc1Oc1cccc(Br)c1 [b-146]
≥ 75%: inhibition of growth at 25 ppm (Colletotrichum acutatum) | pest or weed control at 125 ppm (Botrytis cinerea [1]) | inhibition of growth at 25 ppm (Botrytis cinerea [2]) | pest or weed control at 125 ppm (Venturia inaequalis) | inhibition of growth at 25 ppm (Glomerella cingulata) | inhibition of growth at 25 ppm (Fusarium graminearum) | pest or weed control at 125 ppm [3]

COC(=O)N(Cc1ccc(C)cc1C)NC(=O)c1ccncc1Oc1cccc(Br)c1F [b-147]
≥ 75%: inhibition of growth at 25 ppm (Colletotrichum acutatum) | pest or weed control at 25 ppm (Botrytis cinerea [1]) | pest or weed control at 125 ppm (Botrytis cinerea [1]) | inhibition of growth at 25 ppm (Botrytis cinerea [2]) | pest or weed control at 125 ppm (Venturia inaequalis) | inhibition of growth at 25 ppm (Glomerella cingulata) | inhibition of growth at 25 ppm (Fusarium graminearum) | pest or weed control at 125 ppm [3]

COC(=O)N(Cc1ccc(OC)cc1C)NC(=O)c1ccncc1Oc1cccc(Br)c1F [b-148]
≥ 75%: inhibition of growth at 25 ppm (Colletotrichum acutatum) | pest or weed control at 25 ppm (Botrytis cinerea [1]) | pest or weed control at 125 ppm (Botrytis cinerea [1]) | inhibition of growth at 25 ppm (Botrytis cinerea [2]) | pest or weed control at 125 ppm (Venturia inaequalis) | inhibition of growth at 25 ppm (Glomerella cingulata) | inhibition of growth at 25 ppm (Fusarium graminearum) | pest or weed control at 125 ppm [3]

COC(=O)N(Cc1ccc(C)cc1C)NC(=O)c1c(C)cncc1Oc1cccc(C2CC2)c1 [b-149]
≥ 75%: inhibition of growth at 25 ppm (Colletotrichum acutatum) | pest or weed control at 25 ppm (Botrytis cinerea [1]) | pest or weed control at 125 ppm (Botrytis cinerea [1]) | inhibition of growth at 25 ppm (Botrytis cinerea [2]) | pest or weed control at 125 ppm (Venturia inaequalis) | inhibition of growth at 25 ppm (Glomerella cingulata) | inhibition of growth at 25 ppm (Fusarium graminearum) | pest or weed control at 125 ppm [3]

COC(=O)N(Cc1ccc(C)cc1C)NC(=O)c1ccncc1Oc1cccc(C2CC2)c1F [b-150]
≥ 75%: inhibition of growth at 25 ppm (Colletotrichum acutatum) | pest or weed control at 25 ppm (Botrytis cinerea [1]) | pest or weed control at 125 ppm (Botrytis cinerea [1]) | inhibition of growth at 25 ppm (Botrytis cinerea [2]) | pest or weed control at 125 ppm (Venturia inaequalis) | inhibition of growth at 25 ppm (Glomerella cingulata) | inhibition of growth at 25 ppm (Fusarium graminearum) | pest or weed control at 125 ppm [3]

COC(=O)N(Cc1ccc(C)cc1C)NC(=O)c1cc(C)nnc1Oc1cccc(F)c1F [b-152]
≥ 75%: inhibition of growth at 25 ppm (Colletotrichum acutatum) | pest or weed control at 25 ppm (Botrytis cinerea [1]) | pest or weed control at 125 ppm (Botrytis cinerea [1]) | inhibition of growth at 25 ppm (Botrytis cinerea [2]) | pest or weed control at 125 ppm (Venturia inaequalis) | inhibition of growth at 25 ppm (Glomerella cingulata) | inhibition of growth at 25 ppm (Fusarium graminearum) | pest or weed control at 125 ppm [3]

COC(=O)N(Cc1ccc(C)cc1OC)NC(=O)c1cc(C)nnc1Oc1cccc(C2CC2)c1F [b-153]
≥ 75%: inhibition of growth at 25 ppm (Colletotrichum acutatum) | pest or weed control at 25 ppm (Botrytis cinerea [1]) | pest or weed control at 125 ppm (Botrytis cinerea [1]) | inhibition of growth at 25 ppm (Botrytis cinerea [2]) | pest or weed control at 125 ppm (Venturia inaequalis) | inhibition of growth at 25 ppm (Glomerella cingulata) | inhibition of growth at 25 ppm (Fusarium graminearum) | pest or weed control at 125 ppm [3]

CCc1cc(C(=O)NN(Cc2ccc(OC)cc2C)C(=O)OC)c(Oc2cccc(C3CC3)c2F)nn1 [b-154]
≥ 75%: inhibition of growth at 25 ppm (Colletotrichum acutatum) | pest or weed control at 25 ppm (Botrytis cinerea [1]) | pest or weed control at 125 ppm (Botrytis cinerea [1]) | inhibition of growth at 25 ppm (Botrytis cinerea [2]) | pest or weed control at 125 ppm (Venturia inaequalis) | inhibition of growth at 25 ppm (Glomerella cingulata) | inhibition of growth at 25 ppm (Fusarium graminearum) | pest or weed control at 125 ppm [3]

COC(=O)N(Cc1ccc(OC)cc1C)NC(=O)c1cc(C)nnc1Oc1cccc(Cl)c1F [b-168]
≥ 75%: inhibition of growth at 25 ppm (Colletotrichum acutatum) | pest or weed control at 125 ppm (Botrytis cinerea [1]) | inhibition of growth at 25 ppm (Botrytis cinerea [2]) | pest or weed control at 125 ppm (Venturia inaequalis) | inhibition of growth at 25 ppm (Glomerella cingulata) | inhibition of growth at 25 ppm (Fusarium graminearum) | pest or weed control at 125 ppm [3]

COC(=O)N(Cc1ccc(C)cc1C)NC(=O)c1cc(Cl)nnc1Oc1cccc(Cl)c1F [b-169]
≥ 75%: inhibition of growth at 25 ppm (Colletotrichum acutatum) | pest or weed control at 125 ppm (Botrytis cinerea [1]) | inhibition of growth at 25 ppm (Botrytis cinerea [2]) | pest or weed control at 125 ppm (Venturia inaequalis) | inhibition of growth at 25 ppm (Glomerella cingulata) | inhibition of growth at 25 ppm (Fusarium graminearum) | pest or weed control at 125 ppm [3]

COC(=O)N(Cc1ccc(OC)cc1C)NC(=O)c1cc(Cl)nnc1Oc1cccc(Cl)c1F [b-170]
≥ 75%: inhibition of growth at 25 ppm (Colletotrichum acutatum) | pest or weed control at 125 ppm (Botrytis cinerea [1]) | inhibition of growth at 25 ppm (Botrytis cinerea [2]) | pest or weed control at 125 ppm (Venturia inaequalis) | inhibition of growth at 25 ppm (Glomerella cingulata) | inhibition of growth at 25 ppm (Fusarium graminearum) | pest or weed control at 125 ppm [3]

COC(=O)N(Cc1ccc(OC)cc1Cl)NC(=O)c1cc(C)nnc1Oc1cccc(C2CC2)c1F [b-171]
≥ 75%: inhibition of growth at 25 ppm (Colletotrichum acutatum) | pest or weed control at 25 ppm (Botrytis cinerea [1]) | pest or weed control at 125 ppm (Botrytis cinerea [1]) | inhibition of growth at 25 ppm (Botrytis cinerea [2]) | pest or weed control at 125 ppm (Venturia inaequalis) | inhibition of growth at 25 ppm (Glomerella cingulata) | inhibition of growth at 25 ppm (Fusarium graminearum) | pest or weed control at 125 ppm [3]

COC(=O)N(Cc1ccc(C)cc1Cl)NC(=O)c1c(Oc2cccc(Cl)c2F)nnc(Cl)c1C [b-176]
≥ 75%: inhibition of growth at 25 ppm (Colletotrichum acutatum) | pest or weed control at 25 ppm (Botrytis cinerea [1]) | pest or weed control at 125 ppm (Botrytis cinerea [1]) | inhibition of growth at 25 ppm (Botrytis cinerea [2]) | pest or weed control at 125 ppm (Venturia inaequalis) | inhibition of growth at 25 ppm (Glomerella cingulata) | inhibition of growth at 25 ppm (Fusarium graminearum) | pest or weed control at 125 ppm [3]

COC(=O)N(Cc1ccc(C)cc1Cl)NC(=O)c1c(C)cnnc1Oc1cccc(C2CC2)c1F [b-177]
≥ 75%: inhibition of growth at 25 ppm (Colletotrichum acutatum) | pest or weed control at 25 ppm (Botrytis cinerea [1]) | pest or weed control at 125 ppm (Botrytis cinerea [1]) | inhibition of growth at 25 ppm (Botrytis cinerea [2]) | pest or weed control at 125 ppm (Venturia inaequalis) | inhibition of growth at 25 ppm (Glomerella cingulata) | inhibition of growth at 25 ppm (Fusarium graminearum) | pest or weed control at 125 ppm [3]
